System: Pityrosporum ovale
Test: agar diffusion inhibition-zone test (Hemmhof-Test)
Type: cell-based
Description: TY-Medium 10 g Trypton + 5 g Hefeextrakt + 10 g NaCl, aufgelöst in 1000 ml H₂O, gepuffert auf pH 7,4 , autoklaviert. Testverbindung 1: Polyoxyethylen-20-stearylether Testverbindung 2: Polyoxyethylen-20-isostearylalkohol Testverbindung 3: Polyoxyethylen-21-stearylalkohl Testverbindung 4: Polyoxyethylen-5-cetyl/stearylether Testverbindung 5: Polyoxyethylen-25-Fettalkohol Testverbindung 6: Polyoxyethylen-6-cetyl/stearylether Testverbindung 7: Polyoxyethylen-C₁₂-C₁₅-Alkylether Pityrosporum ovale, isoliert von drei Patienten mit Pityrosporum-Follikulitis, Pityriasis versicolor oder seborrhoischem Ekzem wurde in einer Mischung aus 50 % TY-Medium, 30 % Olivenöl und 20 % Tween 80 suspendiert. Die drei verschiedenen Hefestämme wurden in drei parallelen Ansätzen auf einer Selektivagarplatte für pathogene Pilze (Merck AG, Darmstadt) gleichmäßig ausgespatelt. Mit Hilfe steriler Korkbohrer wurden in jede Platte mehrere kreisrunde Vertiefungen gestanzt, In die Vertiefungen mit einem Durchmesser von 5 mm wurden jeweils 25 µl der Testlösungen gegeben. Die Testlösungen stellten 1%-ige und 10%-ige Lösungen der Testsubstanzen in Ethanol dar.
Nach dreistündiger Inkubation bei 37° C wurde das verdunstete Lösungsmittel durch je 25 µl Jojobaöl ersetzt und die Platten anschließend unter Beibehaltung der Wachstumsbedingungen drei Tage inkubiert. Während dieser Zeit diffundierten die Testsubstanzen in den die Vertiefungen umgebenden Nährboden.
Antimycotisch wirksame Testverbindungen zeigten nach dreitägiger Inkubation einen mehr oder weniger deutlichen konzentrischen Hemmhof um die Vertiefungen. Die Größe dieser Hemmhöfe, wiedergegeben in Tabelle 1, ist bei vergleichbarer Substanzkonzentration ein Maß für die antimycotische Wirksamkeit der Testverbindungen. Tabelle 1
Testverbindung 8 : Polyoxyethylen-[…]-Dodecylether Testverbindung 9 : Polyoxyethylen-20-Stearylether Testverbindung 10: Polyoxyethylen-20-isostearylalkohol Testverbindung 11: Polyoxyethylen-21-stearylalkohol Testverbindung 12: Polyoxyethylen-5-Cetyl/stearylether Testverbindung 13: Polyoxyethylen-25-Fettalkohol Testverbindung 14: Polyoxyethylen-6-Cetyl/Stearylether + Stearylalkohol Testverbindung 15: Polyoxyethylen-C₁₂-C₁₅-Alkylether Von den Testverbindungen 8 - 15 wurden ethanolische Lösungen der Konzentrationen 0,5 %, 1,0 %, 5,0 % und 10,0 % hergestellt und in den Hemmhof-Test eingeführt. Die Versuchsdurchführung entspricht in ihrem Ablaufe dem zu Versuch 1 geschilderten. Die Größe der betreffenden Hemmhöfe ist in Tabelle 2 wiedergegeben. Tabelle 2

[1] = Versuch 2, Konz. 0,5 % ethanolic solution, procedure as Versuch 1
[2] = Versuch 2, Konz. 1,0 % ethanolic solution, procedure as Versuch 1
[3] = Versuch 2, Konz. 5,0 % ethanolic solution, procedure as Versuch 1
[4] = Versuch 2, Konz. 10,0 % ethanolic solution, procedure as Versuch 1
[5] = Versuch 1, 1%-ige Lösung in Ethanol, 25 µl per 5 mm well, three days incubation at 37° C, three strains isolated from patients
[6] = Versuch 1, 10%-ige Lösung in Ethanol, 25 µl per 5 mm well, three days incubation at 37° C, three strains isolated from patients

| Substance | mittlerer Hemmhof-Durchmesser [1] | mittlerer Hemmhof-Durchmesser [2] | mittlerer Hemmhof-Durchmesser [3] | mittlerer Hemmhof-Durchmesser [4] | mittlerer Hemmhof-Durchmesser [5] | mittlerer Hemmhof-Durchmesser [6] |
| --- | --- | --- | --- | --- | --- | --- |
| Polyoxyethylen-5-Cetyl/stearylether [Testlösung 12] | 11,0 mm | 14,0 mm | 16,5 mm | 16,5 mm |  |  |
| Polyoxyethylen-5-cetyl/stearylether [Testlösung 4] |  |  |  |  | 8,5 mm | 9,5 mm |
| Polyoxyethylen-6-cetyl/stearylether [Testlösung 6] |  |  |  |  | 9,5 mm | 14,0 mm |
| Polyoxyethylen-20-Stearylether [Testlösung 9] | 10,7 mm | 14,0 mm | 18,7 mm | 20,7 mm |  |  |
| Polyoxyethylen-20-isostearylalkohol [Testlösung 2] |  |  |  |  | 11,0 mm | 12,0 mm |
| Polyoxyethylen-20-isostearylalkohol [Testlösung 10] | 9,0 mm | 9,0 mm | 15,0 mm | 17,3 mm |  |  |
| Polyoxyethylen-20-stearylether [Testlösung 1] |  |  |  |  | 10,0 mm | 15,5 mm |
| Polyoxyethylen-21-stearylalkohl [Testlösung 3] |  |  |  |  | 7,0 mm | 11,0 mm |
| Polyoxyethylen-21-stearylalkohol [Testlösung 11] | 10,0 mm | 11,7 mm | 12,0 mm | 12,7 mm |  |  |
| Polyoxyethylen-25-Fettalkohol [Testlösung 5] |  |  |  |  | 7,0 mm | 13,0 mm |
| Polyoxyethylen-25-Fettalkohol [Testlösung 13] | 10,0 mm | 11,5 mm | 15,7 mm | 18,3 mm |  |  |
| Polyoxyethylen-??-Dodecylether [Testlösung 8] | 14,0 mm | 15,5 mm | 18,0 mm | 20,7 mm |  |  |
| Polyoxyethylen-C₁₂-C₁₅-Alkylether [Testlösung 7] |  |  |  |  | 9,5 mm | 15,0 mm |
| Polyoxyethylen-C₁₂-C₁₅-Alkylether [Testlösung 15] | 9,0 mm | 12,7 mm | 17,0 mm | 20,0 mm |  |  |

Reference: EP0592876A1, “Antimycotic dermatological and cosmetic compositions” (Beiersdorf Aktiengesellschaft, priority 1992, dated 1994)
